Read-outs that look alike come from different tables or passages of the source. *1 amine or outer side, *2 acyl side, *3 side chain or, on linkers, in order; H or OH if unused. Where a SMILES comes first, the peptide text is derived from it. Bridges are numbered along the chain shown (N, C = ends). [ ]: non-standard residue; d: D form. The star is where a group is joined. X1 = O=C1C[C@@H](C(=O)[*:2])N([*:1])C[C@H]1CS[C@@H]1CN2CCC1CC2; NMePhe(4-NMe2) = CN[C@@H](Cc1ccc(N(C)C)cc1)C(=O)O; Picolinoyl(3-OH) = O=C(c1ncccc1O)*; Phg = N[C@H](C(=O)O)c1ccccc1; dAbu = CC[C@@H](N)C(=O)O
Tests used:
[1] = system: T. gondii RH strain (RH-Tub-eYFP) tachyzoites; assay: microbe, parasite or virus in culture; type: cell-based, Toxoplasma gondii; details: 72 h
[2] = system: P. falciparum 3D7 parasites; assay: P. falciparum growth inhibition assay, 2-cycle (120 h treatment), delayed-death screen and dose-response; type: cell-based, Plasmodium falciparum; details: for activity at 2 µg/mL: Plasmodium falciparum, 3D7
[3] = system: P. falciparum 3D7 parasites; assay: P. falciparum growth inhibition assay, 1-cycle (72 h treatment), SYBR DNA staining (library screen at 2 μg/mL and dose-response); type: cell-based, Plasmodium falciparum; details: for activity at 2 µg/mL: 3D7
[4] = P. falciparum, 120 h, screen at 2 μg/mL, replicate 1, read-out: Pf_120h_%Growth_Rep1
[5] = P. falciparum, 120 h, screen at 2 μg/mL, replicate 2, read-out: Pf_120h_%Growth_Rep2
[6] = Plasmodium falciparum, P. falciparum, 72 h, screen at 2 μg/mL, replicate 1, read-out: Pf_72h_%Growth_Rep1
[7] = Plasmodium falciparum, P. falciparum, 72 h, screen at 2 μg/mL, replicate 2, read-out: Pf_72h_%Growth_Rep2
[8] = T. gondii, parasite screen 2 μg/mL, % growth, replicate 1
[9] = T. gondii, parasite screen 2 μg/mL, % growth, replicate 2
[10] = P. falciparum, 120 h, parasite screen 2 μg/mL, % growth, replicate 1
[11] = P. falciparum, 120 h, parasite screen 2 μg/mL, % growth, replicate 2
[12] = P. falciparum, 72 h, parasite screen 2 μg/mL, % growth, replicate 1
[13] = P. falciparum, 72 h, parasite screen 2 μg/mL, % growth, replicate 2

`CN(C)[C@@H]1C(O)=C(C(N)=O)C(=O)[C@@]2(O)C(O)=C3C(=O)c4c(O)cccc4[C@@](C)(O)[C@H]3C[C@@H]12` [Tetracycline] gave a percent parasite growth at 2 µg/mL ([1]; Toxoplasma gondii, read-out: Tg_72h_%Growth_Rep1) of 103%, a percent parasite growth at 2 µg/mL ([1]; Toxoplasma gondii, read-out: Tg_72h_%Growth_Rep2) of 101% and an activity at 2 µg/mL [2, 4] of 164%. For the same compound, the activity at 2 µg/mL [2, 5] was 73.9%, the activity at 2 µg/mL [3, 6] was 62.1% and the activity at 2 µg/mL [3, 7] was 83.3%.
With `CO[C@@H]1[C@@H](O[C@@H]2O[C@H](C)[C@@H](O[C@H]3C[C@@](C)(O)[C@@H](O)[C@H](C)O3)[C@H](N(C)C)[C@H]2O)[C@@H](CC=O)C[C@@H](C)[C@@H](O[C@H]2CC[C@H](N(C)C)[C@@H](C)O2)/C=C/C=C/C[C@@H](C)OC(=O)C[C@H]1O` [Spiramycin I, reference compound] the Tg_72h_%Growth_Rep1 [1, 8] was 20.85%, the Tg_72h_%Growth_Rep2 [1, 9] was 24.90% and the “2) Growth (%) at 120 h” value ([2]; P. falciparum, 2 μg/mL, 120 h) was 11.98%. For the same compound, the Pf_120h_%Growth_Rep1 [2, 10] was 15.80%, the Pf_120h_%Growth_Rep2 [2, 11] was 8.16% and the “3) Fold change (72 h/120 h)” value ([2]; P. falciparum, growth at 72 h / growth at 120 h, 2 μg/mL) was 6.0. For the same compound, the “1) Growth (%) at 72 h” value ([3]; P. falciparum, 2 μg/mL, 72 h) was 71.72%, the Pf_72h_%Growth_Rep1 [3, 12] was 60.09% and the Pf_72h_%Growth_Rep2 [3, 13] was 83.34%.
`CC[C@H]1OC(=O)[C@H](C)[C@@H](O[C@H]2C[C@@](C)(OC)[C@@H](O)[C@H](C)O2)[C@H](C)[C@@H](O[C@@H]2O[C@H](C)C[C@H](N(C)C)[C@H]2O)[C@@]2(C)CC(C)=C(O2)[C@H](C)[C@@H](O)[C@]1(C)O` [Erythromycin A enol ether] was tested, and the Tg_72h_%Growth_Rep1 ([1]; library screen at 2 μg/mL, % growth, replicate 1) was 90.78%, the Tg_72h_%Growth_Rep2 ([1]; library screen at 2 μg/mL, % growth, replicate 2) was 86.46% and the Pf_120h_%Growth_Rep1 ([2]; library screen at 2 μg/mL, 120 h, % growth, replicate 1) was 47.90%. The Pf_120h_%Growth_Rep2 ([2]; library screen at 2 μg/mL, 120 h, % growth, replicate 2) was 73.68%, the Pf_72h_%Growth_Rep1 ([3]; library screen at 2 μg/mL, 72 h, % growth, replicate 1) was 65.76% and the Pf_72h_%Growth_Rep2 ([3]; library screen at 2 μg/mL, 72 h, % growth, replicate 2) was 86.36%.
`Cc1cc(O)c2c(c1)O[C@@]1(C)CC[C@H]3C(C)(C)CCC[C@]34CO[C@@H]2[C@H]41` [Siccanin] showed a percent parasite growth at 2 µg/mL ([1]; Toxoplasma gondii, T. gondii, parasite screen 2 μg/mL, % growth, replicate 1, read-out: Tg_72h_%Growth_Rep1) of 99.3%, a percent parasite growth at 2 µg/mL ([1]; Toxoplasma gondii, T. gondii, parasite screen 2 μg/mL, % growth, replicate 2, read-out: Tg_72h_%Growth_Rep2) of 83.6% and an activity at 2 µg/mL ([2]; P. falciparum, 120 h, parasite screen 2 μg/mL, % growth, replicate 1, read-out: Pf_120h_%Growth_Rep1) of 73%. For the same compound, the activity at 2 µg/mL ([2]; P. falciparum, 120 h, parasite screen 2 μg/mL, % growth, replicate 2, read-out: Pf_120h_%Growth_Rep2) was 114%, the activity at 2 µg/mL ([3]; Plasmodium falciparum, P. falciparum, 72 h, parasite screen 2 μg/mL, % growth, replicate 1, read-out: Pf_72h_%Growth_Rep1) was 76% and the activity at 2 µg/mL ([3]; Plasmodium falciparum, P. falciparum, 72 h, parasite screen 2 μg/mL, % growth, replicate 2, read-out: Pf_72h_%Growth_Rep2) was 49.5%.
Compound `CCC[C@H]1CC2=C(C[C@@H](CC)CC3=C1C(=O)OC3=O)C(=O)OC2=O` [Byssochlamic acid] has a percent parasite growth at 2 µg/mL ([1]; Toxoplasma gondii, T. gondii, screen at 2 μg/mL, replicate 1, read-out: Tg_72h_%Growth_Rep1) of 92.1%, a percent parasite growth at 2 µg/mL ([1]; Toxoplasma gondii, T. gondii, screen at 2 μg/mL, replicate 2, read-out: Tg_72h_%Growth_Rep2) of 94.4% and an activity at 2 µg/mL [2, 4] of 129%. It also gave an activity at 2 µg/mL [2, 5] of 88.1%, an activity at 2 µg/mL [3, 6] of 89.8% and an activity at 2 µg/mL [3, 7] of 83.3%.
Compound `Cc1cc(O)c2c(c1)C(=O)C13C(=C2O)C(=O)C2C(O)C1C1C(O)C3C(=O)C3=C(O)c4c(O)cc(C)cc4C(=O)C321` (centres unmarked) [Rugulosin - form] has a Tg_72h_%Growth_Rep1 [1, 8] of 9.47%, a Tg_72h_%Growth_Rep2 [1, 9] of 14.48% and a Pf_120h_%Growth_Rep1 [2, 10] of 0.79%. The Pf_120h_%Growth_Rep2 [2, 11] was 8.22%, the Pf_72h_%Growth_Rep1 [3, 12] was 4.91% and the Pf_72h_%Growth_Rep2 [3, 13] was 2.27%.
In the case of `C=C[C@]1(C)C[C@@H](OC(=O)CO)[C@]2(C)[C@H](C)CC[C@]3(CCC(=O)[C@H]32)[C@@H](C)[C@@H]1O` [Pleuromutilin], the IC50 ([1]; Toxoplasma gondii, RH strain, mean ± S.D., n ≥ 3, read-out: IC50 (μM), T. gondii (converted)) is reported as greater than 1 µM, the “Screen (T. gondii)” value ([1]; library screen at 2 μg/mL, RH strain) is reported as “I, I” and the “activity in 120 h dose-response assay against P. falciparum” value ([2]; 120 h) is reported as “did not display any activity”. The IC50 ([3]; Plasmodium falciparum, 3D7, 72 h treatment, mean ± S.D., n ≥ 3, read-out: IC50 (μM), P. falciparum) was greater than 1 µM and the “Screen (P. falciparum)” value ([3]; library screen at 2 μg/mL, 3D7, 72 h, DD from the 120 h timepoint) was “I, I”.
With `CC[C@H]1NC(=O)[C@@H](NC(=O)c2ncccc2O)[C@@H](C)OC(=O)[C@H](c2ccccc2)NC(=O)[C@@H]2CC(=O)[C@H](CS[C@@H]3CN4CCC3CC4)CN2C(=O)[C@H](Cc2ccc(N(C)C)cc2)N(C)C(=O)[C@@H]2CCCN2C1=O.CS(=O)(=O)O` [Quinupristin mesylate] ({Picolinoyl(3-OH)}-T[dAbu]P[NMePhe(4-NMe2)][X1][Phg]; ester 1-C) the Tg_72h_%Growth_Rep1 [1, 8] was 87.31%, the Tg_72h_%Growth_Rep2 [1, 9] was 81.75% and the Pf_120h_%Growth_Rep1 [2, 10] was 64.23%. It also gave a Pf_120h_%Growth_Rep2 [2, 11] of 110.37%, a Pf_72h_%Growth_Rep1 [3, 12] of 73.76% and a Pf_72h_%Growth_Rep2 [3, 13] of 97.23%.

Reference: article PMC12396409, “Screening and hit evaluation of a microbial metabolite library against the pathogenic Plasmodium falciparum and Toxoplasma gondii parasites” (International Journal for Parasitology: Drugs and Drug …, 2025)
